According to ChEMBL document CHEMBL5696442, “Discovery of type II inhibitors of TGFβ-activated kinase 1 (TAK1) and mitogen-activated protein kinase kinase kinase kinase 2 (MAP4K2)” (J Med Chem, 2015):

Experiments:
[1] = target: Serine/threonine-protein kinase 16 (Homo sapiens) (UniProt O75716); assay: Inhibition of MPSK1 Lys2 labeling site in human Huh-7 cells at 1 uM by KiNativ Profiling analysis relative to control; format: cell-based
[2] = target: T1, Mitogen-activated protein kinase kinase kinase 2 (Homo sapiens) (UniProt Q9Y2U5); assay: Inhibition of MAP3K2 Lys1 labeling site in human Huh-7 cell lysate at 1 uM by KiNativ Profiling analysis relative to control; format: subcellular
T1 sequence (whole entry): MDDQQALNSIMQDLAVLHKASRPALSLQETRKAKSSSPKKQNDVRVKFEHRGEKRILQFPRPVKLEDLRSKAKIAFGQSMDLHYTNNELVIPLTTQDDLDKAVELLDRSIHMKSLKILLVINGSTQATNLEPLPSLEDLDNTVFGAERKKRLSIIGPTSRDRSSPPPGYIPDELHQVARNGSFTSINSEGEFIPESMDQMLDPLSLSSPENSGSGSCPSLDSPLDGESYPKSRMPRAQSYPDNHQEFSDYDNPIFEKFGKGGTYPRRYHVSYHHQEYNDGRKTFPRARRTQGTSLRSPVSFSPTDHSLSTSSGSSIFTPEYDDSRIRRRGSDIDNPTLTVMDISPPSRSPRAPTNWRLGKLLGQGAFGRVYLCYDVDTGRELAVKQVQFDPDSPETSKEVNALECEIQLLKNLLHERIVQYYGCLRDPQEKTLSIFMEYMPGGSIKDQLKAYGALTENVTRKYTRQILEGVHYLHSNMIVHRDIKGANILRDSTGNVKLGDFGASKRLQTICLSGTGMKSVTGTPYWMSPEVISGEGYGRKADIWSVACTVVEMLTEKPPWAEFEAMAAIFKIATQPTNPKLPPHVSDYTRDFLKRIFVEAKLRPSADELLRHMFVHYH

[3] = target: Calcium/calmodulin-dependent protein kinase type II subunit delta (Homo sapiens) (UniProt Q13557); assay: Inhibition of CaMK2d Lys1 labeling site harbouring IPTGQEYAAKIINTKK in human Huh-7 cell lysate at 1 uM by KiNativ Profiling analysis relative to control; format: subcellular
Calcium/calmodulin-dependent protein kinase type II subunit delta (Homo sapiens), sequence (Q13557 whole entry): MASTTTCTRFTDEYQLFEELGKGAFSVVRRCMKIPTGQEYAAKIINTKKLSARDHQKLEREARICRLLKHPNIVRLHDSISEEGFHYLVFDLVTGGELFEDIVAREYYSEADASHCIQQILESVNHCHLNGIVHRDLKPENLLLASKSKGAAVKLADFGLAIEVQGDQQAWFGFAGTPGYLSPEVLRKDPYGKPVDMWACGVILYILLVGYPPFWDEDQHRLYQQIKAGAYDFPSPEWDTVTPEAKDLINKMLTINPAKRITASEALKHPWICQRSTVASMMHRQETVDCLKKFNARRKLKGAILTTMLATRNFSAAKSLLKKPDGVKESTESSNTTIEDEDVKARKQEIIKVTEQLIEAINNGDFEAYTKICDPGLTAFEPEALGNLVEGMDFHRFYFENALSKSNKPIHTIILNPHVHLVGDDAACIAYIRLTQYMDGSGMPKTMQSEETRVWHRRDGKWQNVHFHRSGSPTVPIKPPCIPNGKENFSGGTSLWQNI

[4] = target: Platelet-derived growth factor receptor beta (Homo sapiens) (UniProt P09619); assay: Inhibition of PDGFRB (unknown origin) at 10 uM by Ambit Kinomescan binding assay relative to control
[5] = target: Peripheral plasma membrane protein CASK (Homo sapiens) (UniProt O14936); assay: Inhibition of CASK K1 labeling site in human Huh-7 cells at 10 uM by KiNativ Profiling analysis relative to control
Peripheral plasma membrane protein CASK (Homo sapiens), sequence (O14936 whole entry, looked up): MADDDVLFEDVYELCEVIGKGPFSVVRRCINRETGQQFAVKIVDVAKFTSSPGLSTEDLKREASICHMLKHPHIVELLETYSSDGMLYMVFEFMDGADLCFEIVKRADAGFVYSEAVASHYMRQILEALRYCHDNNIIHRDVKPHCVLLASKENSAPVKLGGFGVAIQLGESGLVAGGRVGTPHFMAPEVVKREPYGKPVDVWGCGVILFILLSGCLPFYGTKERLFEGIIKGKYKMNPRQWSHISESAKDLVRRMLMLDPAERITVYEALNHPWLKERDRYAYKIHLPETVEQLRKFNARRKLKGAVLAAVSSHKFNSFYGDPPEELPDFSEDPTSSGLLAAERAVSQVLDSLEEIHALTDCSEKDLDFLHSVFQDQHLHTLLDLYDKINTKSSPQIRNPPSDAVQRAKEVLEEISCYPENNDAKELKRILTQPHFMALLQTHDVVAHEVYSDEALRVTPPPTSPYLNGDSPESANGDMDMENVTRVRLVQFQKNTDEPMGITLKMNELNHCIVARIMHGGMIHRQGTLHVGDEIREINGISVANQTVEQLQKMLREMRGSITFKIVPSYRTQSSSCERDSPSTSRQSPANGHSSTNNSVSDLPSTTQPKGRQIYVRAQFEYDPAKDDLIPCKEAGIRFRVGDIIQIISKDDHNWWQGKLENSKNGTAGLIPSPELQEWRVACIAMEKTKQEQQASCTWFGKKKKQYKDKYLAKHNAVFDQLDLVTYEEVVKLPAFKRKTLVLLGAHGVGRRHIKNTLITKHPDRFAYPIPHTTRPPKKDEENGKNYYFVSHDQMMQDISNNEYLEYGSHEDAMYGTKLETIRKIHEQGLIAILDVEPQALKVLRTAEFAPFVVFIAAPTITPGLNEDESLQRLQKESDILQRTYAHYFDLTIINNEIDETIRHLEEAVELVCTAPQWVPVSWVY

[6] = target: Vascular endothelial growth factor receptor 1 (Homo sapiens) (UniProt P17948); assay: Inhibition of FLT1 (unknown origin) at 10 uM by Ambit Kinomescan binding assay relative to control; values are per cent of control
Vascular endothelial growth factor receptor 1 (Homo sapiens), sequence (P17948 whole entry): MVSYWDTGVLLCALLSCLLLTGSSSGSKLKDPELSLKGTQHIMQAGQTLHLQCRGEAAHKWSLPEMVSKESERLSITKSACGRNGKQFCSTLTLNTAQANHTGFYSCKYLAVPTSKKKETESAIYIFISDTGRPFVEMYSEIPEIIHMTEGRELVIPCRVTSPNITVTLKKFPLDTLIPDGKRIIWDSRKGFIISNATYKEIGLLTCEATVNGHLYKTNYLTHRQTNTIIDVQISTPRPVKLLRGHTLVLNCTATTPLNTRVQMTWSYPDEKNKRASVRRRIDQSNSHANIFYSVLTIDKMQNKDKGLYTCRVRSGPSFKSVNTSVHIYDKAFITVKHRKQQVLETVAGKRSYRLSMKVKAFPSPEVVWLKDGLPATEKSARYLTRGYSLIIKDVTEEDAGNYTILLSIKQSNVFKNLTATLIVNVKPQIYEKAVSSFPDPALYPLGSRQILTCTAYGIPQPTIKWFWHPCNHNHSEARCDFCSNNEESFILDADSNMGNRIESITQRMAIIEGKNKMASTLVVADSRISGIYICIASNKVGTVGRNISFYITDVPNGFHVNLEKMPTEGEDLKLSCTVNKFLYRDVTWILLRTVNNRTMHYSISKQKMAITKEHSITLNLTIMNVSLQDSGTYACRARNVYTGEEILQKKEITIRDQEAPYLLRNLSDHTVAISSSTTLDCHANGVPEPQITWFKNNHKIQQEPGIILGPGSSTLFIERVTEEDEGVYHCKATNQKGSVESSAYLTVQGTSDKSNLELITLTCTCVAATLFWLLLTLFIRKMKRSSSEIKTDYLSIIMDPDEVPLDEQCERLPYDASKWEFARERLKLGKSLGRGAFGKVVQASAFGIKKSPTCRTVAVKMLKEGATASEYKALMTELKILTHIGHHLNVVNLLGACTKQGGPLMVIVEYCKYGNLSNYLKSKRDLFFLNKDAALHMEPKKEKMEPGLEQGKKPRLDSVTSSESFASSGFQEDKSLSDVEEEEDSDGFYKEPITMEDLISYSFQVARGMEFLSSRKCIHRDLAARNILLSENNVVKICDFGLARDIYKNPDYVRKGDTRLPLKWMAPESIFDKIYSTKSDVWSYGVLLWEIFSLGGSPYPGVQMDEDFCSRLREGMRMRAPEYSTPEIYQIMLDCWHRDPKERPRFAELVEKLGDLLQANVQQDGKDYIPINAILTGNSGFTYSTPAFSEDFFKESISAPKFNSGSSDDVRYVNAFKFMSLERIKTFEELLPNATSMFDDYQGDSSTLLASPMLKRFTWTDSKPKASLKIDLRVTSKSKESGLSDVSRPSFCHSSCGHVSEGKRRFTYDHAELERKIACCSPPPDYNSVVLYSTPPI

[7] = target: T2, Phosphatidylinositol 5-phosphate 4-kinase type-2 alpha (Homo sapiens) (UniProt P48426); assay: Inhibition of PIP5K2A C2 labeling site in human Huh-7 cells at 10 uM by KiNativ Profiling analysis relative to control; format: cell-based
T2 sequence (whole entry): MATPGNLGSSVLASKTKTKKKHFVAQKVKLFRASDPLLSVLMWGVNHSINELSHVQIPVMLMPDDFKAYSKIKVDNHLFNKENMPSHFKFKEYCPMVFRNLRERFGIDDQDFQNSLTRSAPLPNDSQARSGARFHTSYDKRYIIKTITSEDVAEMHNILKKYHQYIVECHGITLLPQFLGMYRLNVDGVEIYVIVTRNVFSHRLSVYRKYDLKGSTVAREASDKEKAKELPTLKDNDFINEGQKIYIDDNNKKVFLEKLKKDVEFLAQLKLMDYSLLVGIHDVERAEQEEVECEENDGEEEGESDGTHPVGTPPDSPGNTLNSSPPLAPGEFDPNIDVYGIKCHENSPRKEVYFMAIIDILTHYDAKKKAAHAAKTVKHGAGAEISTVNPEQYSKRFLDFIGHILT

[8] = tested on: BaF3; assay: Antiproliferative activity against parental mouse BaF3 cells assessed reduction in cell viability measured after 48 hrs by Celltiter-glo assay; format: functional, cell-based; details: BaF3, 48 h
[9] = target: Serine/threonine-protein kinase PAK 4 (Homo sapiens) (UniProt O96013); assay: Inhibition of PAK4 (unknown origin) at 1 uM by Ambit Kinomescan binding assay relative to control; values are per cent of control
Serine/threonine-protein kinase PAK 4 (Homo sapiens), sequence (O96013 whole entry, looked up): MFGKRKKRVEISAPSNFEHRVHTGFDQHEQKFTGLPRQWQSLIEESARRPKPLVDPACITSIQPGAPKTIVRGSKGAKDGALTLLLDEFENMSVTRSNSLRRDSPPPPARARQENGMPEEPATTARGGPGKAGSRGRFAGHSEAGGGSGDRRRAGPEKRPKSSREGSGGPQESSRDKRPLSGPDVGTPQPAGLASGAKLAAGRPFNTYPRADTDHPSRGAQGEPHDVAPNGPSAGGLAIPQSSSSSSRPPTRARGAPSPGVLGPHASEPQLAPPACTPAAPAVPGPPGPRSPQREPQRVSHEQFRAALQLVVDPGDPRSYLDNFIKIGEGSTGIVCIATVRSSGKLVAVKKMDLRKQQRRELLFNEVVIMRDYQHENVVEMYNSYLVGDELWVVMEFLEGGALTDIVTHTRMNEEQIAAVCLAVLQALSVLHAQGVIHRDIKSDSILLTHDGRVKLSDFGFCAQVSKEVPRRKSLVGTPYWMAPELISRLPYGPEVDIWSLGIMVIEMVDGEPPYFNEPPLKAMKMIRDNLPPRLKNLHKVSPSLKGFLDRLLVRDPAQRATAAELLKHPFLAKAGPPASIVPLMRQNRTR

[10] = target: RAC-gamma serine/threonine-protein kinase (Homo sapiens) (UniProt Q9Y243); assay: Inhibition of AKT3 ATP Loop labeling site in human A-375 cells at 5 uM by KiNativ Profiling analysis relative to control; format: cell-based
RAC-gamma serine/threonine-protein kinase (Homo sapiens), sequence (Q9Y243 whole entry): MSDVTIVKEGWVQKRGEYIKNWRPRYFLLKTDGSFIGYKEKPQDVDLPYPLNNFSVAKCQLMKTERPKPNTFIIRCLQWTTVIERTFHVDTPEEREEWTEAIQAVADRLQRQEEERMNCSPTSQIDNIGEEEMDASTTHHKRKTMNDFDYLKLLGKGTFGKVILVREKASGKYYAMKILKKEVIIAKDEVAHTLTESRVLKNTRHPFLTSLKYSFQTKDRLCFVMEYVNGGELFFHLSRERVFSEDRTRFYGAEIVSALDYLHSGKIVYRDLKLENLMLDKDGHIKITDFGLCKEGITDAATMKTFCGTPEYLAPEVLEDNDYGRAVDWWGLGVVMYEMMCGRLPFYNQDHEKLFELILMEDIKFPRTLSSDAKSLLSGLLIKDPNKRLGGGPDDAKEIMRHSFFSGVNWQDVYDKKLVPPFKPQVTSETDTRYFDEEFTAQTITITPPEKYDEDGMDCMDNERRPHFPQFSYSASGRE

[11] = target: T3, Serine/threonine-protein kinase TAO1 (Homo sapiens) (UniProt Q7L7X3); assay: Inhibition of TAOK1 (unknown origin) at 1 uM by Ambit Kinomescan binding assay relative to control
T3 sequence (whole entry): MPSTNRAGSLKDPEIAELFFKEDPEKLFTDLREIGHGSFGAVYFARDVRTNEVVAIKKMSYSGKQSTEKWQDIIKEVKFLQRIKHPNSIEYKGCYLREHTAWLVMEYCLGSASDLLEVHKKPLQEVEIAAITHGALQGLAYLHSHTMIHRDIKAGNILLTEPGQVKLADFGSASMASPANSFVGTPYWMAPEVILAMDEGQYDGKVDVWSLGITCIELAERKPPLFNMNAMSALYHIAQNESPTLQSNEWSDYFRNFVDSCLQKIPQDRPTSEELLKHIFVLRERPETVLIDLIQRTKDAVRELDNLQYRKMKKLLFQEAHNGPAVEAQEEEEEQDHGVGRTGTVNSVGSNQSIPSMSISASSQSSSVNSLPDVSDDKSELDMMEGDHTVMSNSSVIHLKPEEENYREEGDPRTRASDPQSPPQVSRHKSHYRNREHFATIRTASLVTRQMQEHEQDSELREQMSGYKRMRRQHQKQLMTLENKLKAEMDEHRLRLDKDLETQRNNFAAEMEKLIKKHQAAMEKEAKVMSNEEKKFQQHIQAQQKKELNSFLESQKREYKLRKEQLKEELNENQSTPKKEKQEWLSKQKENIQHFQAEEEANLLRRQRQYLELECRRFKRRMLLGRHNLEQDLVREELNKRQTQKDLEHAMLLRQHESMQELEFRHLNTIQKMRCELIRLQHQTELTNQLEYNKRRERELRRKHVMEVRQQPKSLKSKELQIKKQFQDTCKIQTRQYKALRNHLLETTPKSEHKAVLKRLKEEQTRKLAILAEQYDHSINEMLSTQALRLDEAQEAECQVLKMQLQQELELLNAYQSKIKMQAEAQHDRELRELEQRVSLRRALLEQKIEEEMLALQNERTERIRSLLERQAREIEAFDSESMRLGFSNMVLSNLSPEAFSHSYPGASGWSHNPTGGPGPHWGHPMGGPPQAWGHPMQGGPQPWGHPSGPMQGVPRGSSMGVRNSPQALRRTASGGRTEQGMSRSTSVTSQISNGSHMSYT

Serine/threonine-protein kinase 16 (Homo sapiens), sequence (O75716 whole entry): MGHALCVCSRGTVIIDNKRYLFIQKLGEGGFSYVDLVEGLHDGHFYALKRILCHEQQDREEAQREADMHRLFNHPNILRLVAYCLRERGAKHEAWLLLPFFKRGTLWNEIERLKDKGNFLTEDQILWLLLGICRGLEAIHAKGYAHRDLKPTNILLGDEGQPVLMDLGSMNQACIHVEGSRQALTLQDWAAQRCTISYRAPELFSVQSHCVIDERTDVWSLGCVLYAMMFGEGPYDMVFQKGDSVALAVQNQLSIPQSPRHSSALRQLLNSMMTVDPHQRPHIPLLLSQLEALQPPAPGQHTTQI

For `CNc1cc(Oc2cc(C(=O)Nc3cc(N4CCN(C)CC4)cc(C(F)(F)F)c3)ccc2C)ncn1`, the inhibition [1] was 33.2%, the inhibition [2] was 11% and the inhibition [3] was 15.4%.
Molecule `CCN1CCN(Cc2ccc(NC(=O)c3ccc(C)c(Oc4ccnc5[nH]ccc45)c3)cc2C(F)(F)F)CC1` has an inhibition [4] of 0%, an inhibition [5] of 12% and a percent of control [6] of 1.6%. It also gave an inhibition [7] of 1.3%.
With `CCN1CCN(Cc2ccc(NC(=O)c3ccc(C)c(/C=C/c4cnc5[nH]ccc5c4OC)c3)cc2C(F)(F)F)CC1` the IC50 [8] was 4.02 µM, the residual activity [9] was 100% and the inhibition [10] was 13.3%. It also gave an inhibition [11] of 22%.
